Source: ChEMBL document CHEMBL5120881, “Silencing Tautomerization to Isolate Unstable Physalins from Physalis minima” (J Nat Prod, 2022)

Tests used:
RAW264.7 = experiment: Antiinflammatory activity in mouse RAW264.7 assessed as inhibition of LPS-stimulated NO production pretreated with LPS followed by compund addition by Griess reagent based microplate reader assay; format: functional, cell-based; conditions: for IC50: Mus musculus, RAW264.7
[1] = Cytotoxicity against human L02 cells assessed as reduction in cell viability incubated for 48 hrs by CCK8 assay; format: toxicity, cell-based
[2] = Cytotoxicity against mouse RAW264.7 cells assessed as reduction in cell viability incubated for 48 hrs by CCK8 assay; format: toxicity, cell-based
MCF7 = experiment: Antiproliferative activity against human MCF7 cells assessed as reduction in cell viability incubated for 48 hrs by CCK8 assay; format: functional, cell-based; conditions: MCF7, 48 h
SGC-7901 = experiment: Antiproliferative activity against human SGC-7901 cells assessed as reduction in cell viability incubated for 48 hrs by CCK8 assay; format: functional, cell-based; conditions: SGC-7901, 48 h
A549 = experiment: Antiproliferative activity against human A549 cells assessed as reduction in cell viability incubated for 48 hrs by CCK8 assay; format: functional, cell-based; conditions: A549, 48 h
HepG2 = experiment: Antiproliferative activity against human HepG2 cells assessed as reduction in cell viability incubated for 48 hrs by CCK8 assay; format: functional, cell-based; conditions: HepG2, 48 h
[3] = Cytotoxicity against mouse RAW264.7 cells assessed as cell viability at 10 uM incubated for 48 hrs by CCK8 assay; format: toxicity, cell-based; conditions: read-out: Activity
[4] = Cytotoxicity against human L02 cells assessed as cell viability at 10 uM incubated for 48 hrs by CCK8 assay; format: toxicity, cell-based; conditions: read-out: Activity

Row | IC50 (RAW264.7) | IC50 (MCF7) | IC50 (SGC-7901) | IC50 (A549) | IC50 (HepG2) | Structure (SMILES) | IC50 at 48 h [1] | IC50 at 48 h [2] | inhibition (INH) (RAW264.7) | viability at 48 h, 10 µM [3] | viability at 48 h, 10 µM [4]
1 | 28 µM | > 50 µM | > 50 µM | > 50 µM | > 50 µM | COC(=O)C[C@H](O)C(=O)O[C@]12CC=CC(=O)[C@]1(C)[C@H]1CC[C@]3(O)C(=O)O[C@@]4(C)[C@H]5C[C@]6(C)[C@@H](CO[C@]7(O[C@@]43[C@H]6C7=O)[C@@H]1C[C@H]2O)C(=O)O5 | > 50 µM | > 50 µM |  |  | 
2 | 78.7 µM | > 50 µM | > 50 µM | > 50 µM | > 50 µM | C[C@@]12C[C@H]3OC(=O)[C@@H]1CO[C@]14C(=O)O[C@@]5([C@H]21)[C@@]3(C)OC(=O)[C@@]5(O)CC[C@H]1[C@H]4CC[C@@]2(O)CC=CC(=O)[C@]12C | > 50 µM | > 50 µM |  |  | 
3 |  | 1.2 µM | 9.1 µM | 4.2 µM | 9.4 µM | C=C1C(=O)O[C@@H]2C[C@@]1(C)[C@@H]1C(=O)[C@@]3(O)O[C@]14[C@@]2(C)OC(=O)[C@@]4(O)CC[C@H]1[C@H]3CC=C2C=CCC(=O)[C@@]21C |  |  | <50% | 91.4% | 95.4%
4 | 56.6 µM | > 50 µM | > 50 µM | > 50 µM | > 50 µM | C[C@@H]1C(=O)O[C@@H]2C[C@@]1(C)[C@@H]1C(=O)[C@@]3(O)O[C@]14[C@@]2(C)OC(=O)[C@@]4(O)CC[C@H]1[C@H]3C[C@@H](O)[C@@]2(O)CC=CC(=O)[C@]12C | > 50 µM | > 50 µM |  |  | 
5 | 75.3 µM | > 50 µM | > 50 µM | > 50 µM | > 50 µM | CO[C@]12CC=CC(=O)[C@]1(C)[C@H]1CC[C@]3(O)C(=O)O[C@@]4(C)[C@H]5C[C@]6(C)[C@@H](CO[C@@]7(O[C@@]43[C@H]6C7=O)[C@@H]1C[C@H]2O)C(=O)O5 | > 50 µM | > 50 µM |  |  | 
6 | 23.8 µM | > 50 µM | > 50 µM | > 50 µM | > 50 µM | CO[C@]12C=CCC(=O)[C@]1(C)[C@H]1CC[C@]3(O)C(=O)O[C@@]4(C)[C@H]5C[C@]6(C)[C@@H](CO[C@]7(O[C@@]43[C@H]6C7=O)[C@@H]1C[C@H]2O)C(=O)O5 | > 50 µM | > 50 µM |  |  | 
7 |  | 7.3 µM | 12.4 µM | 5.4 µM | 9.8 µM | C=C1C(=O)O[C@@H]2C[C@@]1(C)[C@@H]1C(=O)[C@@]3(O)O[C@]14[C@@]2(C)OC(=O)[C@@]4(O)CC[C@H]1[C@H]3C[C@@H](O)[C@@]2(O)CC=CC(=O)[C@]12C |  |  | <50% | 93.5% | 97.5%
8 | 9.5 µM | > 50 µM | > 50 µM | > 50 µM | > 50 µM | C[C@]12C(=O)C=CCC1=CC[C@@H]1[C@@H]2[C@H]2C[C@]3(O)C(=O)O[C@@]4(C)[C@H]5C[C@@]6(C)[C@@H]7[C@@]2(O)[C@@]1(OC[C@H]6C(=O)O5)O[C@@]743 | > 50 µM | > 50 µM |  |  | 
9 | 9.5 µM | > 50 µM | > 50 µM | > 50 µM | > 50 µM | C=C1C(=O)O[C@@H]2C[C@@]1(C)[C@@H]1C(=O)[C@@]3(O)O[C@]14[C@@]2(C)OC(=O)[C@@]4(O)CC[C@H]1[C@H]3[C@H](O)C=C2CC=CC(=O)[C@@]21C | > 50 µM | > 50 µM |  |  | 
10 |  | 12.5 µM | 9.8 µM | 7 µM | 8.3 µM | C=C1C(=O)O[C@@H]2C[C@@]1(C)[C@@H]1C(=O)[C@@]3(O)O[C@]14[C@@]2(C)OC(=O)[C@@]4(O)CC[C@H]1[C@H]3C[C@@H](O)C2=CC=CC(=O)[C@@]21C |  |  | <50% | 92.3% | 95.2%
11 |  | 2.1 µM | 1.1 µM | 2 µM | 4.9 µM | C=C1C(=O)O[C@@H]2C[C@@]1(C)[C@@H]1C(=O)[C@@]3(O)O[C@]14[C@@]2(C)OC(=O)[C@@]4(O)CC[C@H]1[C@H]3C[C@@H](O)[C@@]2(Cl)CC=CC(=O)[C@]12C |  |  | <50% | 90.1% | 98.1%
12 | 17.5 µM | > 50 µM | > 50 µM | > 50 µM | > 50 µM | C[C@]12C(=O)CC=CC1=CC[C@@H]1[C@@H]2CC[C@]2(O)C(=O)O[C@@]3(C)[C@H]4C[C@@]5(C)[C@@H]6C(=O)[C@@]1(OC[C@@]5(O)C(=O)O4)O[C@@]632 | > 50 µM | > 50 µM |  |  | 
13 |  | 10.5 µM | 12.1 µM | 12.2 µM | 16.8 µM | C[C@]12C(=O)C=CCC1=CC[C@@H]1[C@@H]2CC[C@]2(O)C(=O)O[C@@]3(C)[C@H]4C[C@@]5(C)[C@@H]6C(=O)[C@@]1(OC[C@@]5(O)C(=O)O4)O[C@@]632 |  |  |  | 95.5% | 97.3%
14 |  |  |  |  |  | O=C(CCCCCCC(=O)Nc1ccccc1)NO [VORINOSTAT] |  |  |  | 87% | 92.5%

Row | Structure (SMILES) | IC50 (RAW264.7) | IC50 (MCF7) | IC50 (SGC-7901) | IC50 (A549) | IC50 (HepG2) | IC50 at 48 h [1] | IC50 at 48 h [2] | inhibition (INH) (RAW264.7) | viability at 48 h, 10 µM [3] | viability at 48 h, 10 µM [4]
15 | C[C@@]12C[C@H]3OC(=O)[C@@H]1CO[C@]14O[C@@]5([C@H]2C1=O)[C@@]3(C)OC(=O)[C@@]5(O)CC[C@H]1[C@H]4C[C@@H](O)[C@@]2(O)CC=CC(=O)[C@]12C | 49.8 µM | > 50 µM | > 50 µM | > 50 µM | > 50 µM | > 50 µM | > 50 µM |  |  | 
16 | C[C@@]12C[C@H]3OC(=O)[C@@H]1CO[C@]14O[C@@]5([C@H]2C1=O)[C@@]3(C)OC(=O)[C@@]5(O)CC[C@H]1[C@H]4C[C@H]2O[C@]23CC=CC(=O)[C@]13C | 7.9 µM | > 50 µM | > 50 µM | > 50 µM | > 50 µM | > 50 µM | > 50 µM |  |  | 
17 | C=C1C(=O)O[C@@H]2C[C@@]1(C)[C@@H]1C(=O)[C@@]3(O)O[C@]14[C@@]2(C)OC(=O)[C@@]4(O)CC[C@H]1[C@H]3C[C@H]2O[C@]23CC=CC(=O)[C@]13C |  | 0.9 µM | 0.3 µM | 0.2 µM | 1.3 µM |  |  | <50% | 85.2% | 90.2%
18 | C[C@@]12C[C@H]3OC(=O)[C@@H]1CO[C@@]14O[C@@]5([C@H]2C1=O)[C@@]3(C)OC(=O)[C@@]5(O)CC[C@H]1[C@H]4C[C@H](O)[C@]2(O)CC=CC(=O)[C@]12C | 43.8 µM | > 50 µM | > 50 µM | > 50 µM | > 50 µM | > 50 µM | > 50 µM |  |  | 
19 | C[C@]12C(=O)C=CC=C1[C@@H](O)C[C@@H]1[C@@H]2CC[C@@]2(O)C(=O)O[C@@]3(C)[C@H]4C[C@]5(C)[C@@H](CO[C@@]16O[C@]23[C@H]5C6=O)C(=O)O4 [PHYSALIN G] | 13.5 µM | > 50 µM | > 50 µM | > 50 µM | > 50 µM | > 50 µM | > 50 µM |  |  | 
